In the supplement of paper PMC10307832:

What was measured:
Experiment in all cases: relative viability (nuclei count vs DMSO), 5 days (fraction); higher = more cells survive
Vemurafenib = compound: CCCS(=O)(=O)Nc1ccc(F)c(C(=O)c2c[nH]c3ncc(-c4ccc(Cl)cc4)cc23)c1F [Vemurafenib]
Procedure, shortened: (§1)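 Viability was defined as treated-well nuclei divided by vehicle-well nuclei, with the median taken over replicate plates. Cells from lung cancer lines sat overnight at 37 °C in 1536-well plates, received five √10-spaced library-drug doses by pinning on vehicle-anchored plates, and grew 5 days without medium change before one-step fixation, permeabilisation and Hoechst staining, 4× imaging and MetaXpress nuclear counts. Only plates with control CV under 25% and at least one doubling were kept.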

Alpelisib = compound: Cc1nc(NC(=O)N2CCC[C@H]2C(N)=O)sc1-c1ccnc(C(C)(C)C(F)(F)F)c1 [Alpelisib]
Procedure, shortened: as §1

OSI-027 = compound: COc1cccc2cc(-c3nc([C@H]4CC[C@H](C(=O)O)CC4)n4ncnc(N)c34)[nH]c12 [OSI-027]
Procedure, shortened: as §1

Vemurafenib + Phenformin = compound: CCCS(=O)(=O)Nc1ccc(F)c(C(=O)c2c[nH]c3ncc(-c4ccc(Cl)cc4)cc23)c1F [Vemurafenib] + N=C(N)NC(=N)NCCc1ccccc1 [Phenformin] (partner 250 µM)
Procedure, shortened: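 Lung cancer cell lines, seeded in 1536-well plates, were treated the following day by pin tool with a single drug or with five library-drug doses (not always all listed) in √10 steps on top of a fixed anchor-drug dose. Cells were fixed and nuclei stained in one step after 5 days, and nuclei were counted. Relative viability is the nuclei count for treated wells divided by that for vehicle wells, reported as medians of duplicate plates.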

| Cell Line | relative viability (Vemurafenib; 0.03162 µM) | relative viability (Vemurafenib; 0.3162 µM) | relative viability (Vemurafenib; 1 µM) | relative viability (Alpelisib; 0.04 µM) | relative viability (Alpelisib; 0.1265 µM) | relative viability (Alpelisib; 0.4 µM) | relative viability (Alpelisib; 1.265 µM) | relative viability (Alpelisib; 4 µM) | relative viability (OSI-027; 0.01 µM) | relative viability (OSI-027; 0.03162 µM) | relative viability (OSI-027; 0.1 µM) | relative viability (OSI-027; 0.3162 µM) | relative viability (OSI-027; 0.5 µM, anchor plate) | relative viability (OSI-027; 1 µM) | relative viability (Vemurafenib + Phenformin; first compound 0.03162 µM) | relative viability (Vemurafenib + Phenformin; first compound 0.3162 µM) | relative viability (Vemurafenib + Phenformin; first compound 1 µM) | relative viability (Vemurafenib; 0.1 µM) | relative viability (Vemurafenib + Phenformin; first compound 0.1 µM) | relative viability (Alpelisib; 2 µM, anchor plate) |
| --- | --- | --- | --- | --- | --- | --- | --- | --- | --- | --- | --- | --- | --- | --- | --- | --- | --- | --- | --- | --- |
| NCI-H1623 | 0.977 | 1.23 | 0.99 | 0.853 | 0.893 | 1.07 | 0.629 | 0.631 | 1.1 | 0.912 | 1.02 | 0.77 | 0.433 | 0.427 | 0.565 | 0.623 | 0.569 |  |  |  |
| NCI-H1650 | 0.774 | 0.924 | 1.01 | 0.935 | 0.801 | 1.06 | 0.814 | 0.815 | 0.937 | 0.843 | 0.912 | 0.893 | 0.689 | 0.421 |  |  | 0.376 | 0.701 | 0.353 |  |
| NCI-H1651 | 0.919 | 0.887 | 0.966 | 0.891 | 1.02 | 1.01 | 0.844 | 0.841 | 0.96 | 0.828 | 0.977 | 0.901 | 0.71 | 0.723 | 0.318 | 0.325 | 0.311 | 0.998 | 0.295 | 0.973 |
| NCI-H1666 | 0.946 | 1.1 | 0.926 | 0.997 | 0.98 | 1.13 | 0.84 | 0.8 | 0.99 | 0.986 | 0.98 | 0.88 | 0.863 | 0.666 | 0.549 | 0.63 | 0.604 | 0.902 | 0.594 | 0.977 |
| NCI-H1734 | 0.967 | 0.779 | 0.875 | 0.917 | 0.857 | 1 | 0.644 | 0.508 | 0.962 | 0.991 | 0.826 | 0.785 | 0.615 | 0.684 | 0.403 | 0.359 | 0.356 | 1.02 | 0.358 | 0.674 |
| NCI-H1755 | 0.958 | 0.823 | 0.957 | 0.989 | 1.01 | 0.986 | 0.876 | 0.853 | 0.983 | 0.921 | 0.988 | 0.898 | 0.745 | 0.78 | 0.545 | 0.377 | 0.597 | 0.969 | 0.599 | 0.942 |
| NCI-H1792 | 0.776 | 0.624 | 0.914 | 0.89 | 0.724 | 0.819 | 0.636 | 0.383 | 0.658 | 0.841 | 0.843 | 0.709 | 0.784 | 0.374 | 0.228 | 0.115 | 0.336 | 0.904 | 0.236 | 0.728 |
| NCI-H1793 | 0.836 | 0.775 | 0.867 | 0.851 | 0.89 | 0.919 | 0.731 | 0.626 | 0.902 | 0.976 | 0.781 | 0.579 | 0.284 | 0.295 | 0.338 | 0.333 | 0.338 |  |  | 0.792 |
| NCI-H1915 | 0.948 | 0.755 | 0.845 | 1.01 | 0.998 | 0.976 | 0.948 | 0.893 | 1.05 | 1.09 | 0.967 | 0.891 | 0.601 | 0.791 | 0.354 | 0.255 | 0.332 | 0.964 | 0.348 | 1.06 |
| NCI-H1944 | 0.939 | 0.895 | 0.933 | 0.94 | 1.13 | 0.915 | 0.79 | 0.447 | 0.916 | 0.915 | 0.808 | 0.743 | 0.457 | 0.567 | 0.206 | 0.122 | 0.191 | 0.772 | 0.18 | 0.842 |
| NCI-H1975 | 0.922 | 0.696 | 0.886 | 0.918 | 0.968 | 0.984 | 0.664 | 0.561 | 0.977 | 0.924 | 0.926 | 0.953 | 0.729 | 0.622 | 0.422 | 0.289 | 0.466 | 0.9 | 0.406 | 0.679 |
| NCI-H1993 | 0.844 | 0.993 | 0.974 | 0.862 | 0.86 | 0.961 | 0.698 | 0.609 | 0.803 | 0.817 | 0.704 | 0.611 | 0.558 | 0.438 | 0.532 | 0.595 | 0.468 |  |  | 0.707 |
| NCI-H2009 | 0.95 | 0.716 | 0.866 | 0.974 | 1.05 | 1.19 | 1.01 | 0.903 | 1.01 | 0.992 | 0.965 | 0.948 | 0.629 | 0.617 | 0.458 | 0.343 | 0.361 | 0.938 | 0.418 | 1.13 |
| NCI-H2023 | 0.915 | 0.908 | 0.957 | 0.876 | 0.928 | 0.93 | 0.649 | 0.5 | 0.952 | 0.855 | 0.819 | 0.566 | 0.429 | 0.377 | 0.376 | 0.378 | 0.354 | 0.863 | 0.381 | 0.6 |
| NCI-H2085 | 0.89 | 0.805 | 1.02 | 0.988 | 0.943 | 1.01 | 0.93 | 0.889 | 0.962 | 0.967 | 0.928 | 0.926 | 0.789 | 0.658 | 0.65 | 0.683 | 0.676 | 0.885 | 0.57 | 0.984 |
| NCI-H2087 | 1.01 |  | 1.13 | 1.21 | 1.02 | 1.08 | 0.868 | 0.85 | 0.986 | 1.03 | 0.911 | 0.911 | 0.605 | 0.508 | 0.438 |  | 0.467 | 1.11 | 0.402 | 1 |
| NCI-H2126 | 0.925 | 0.966 | 0.988 | 1.02 | 1.01 | 0.936 | 0.791 | 0.758 | 0.977 | 1.02 | 0.943 | 0.873 | 0.722 | 0.664 | 0.513 |  | 0.533 | 0.845 | 0.485 | 0.746 |
| NCI-H2170 | 0.92 | 0.936 | 0.964 | 0.946 | 0.868 | 1.07 | 0.769 | 0.621 | 0.941 | 0.881 | 0.959 | 0.797 | 0.716 | 0.654 | 0.396 | 0.376 | 0.454 | 0.674 | 0.354 | 0.825 |
| NCI-H2228 | 1.04 | 1.05 | 0.999 | 0.947 | 0.881 | 1.04 | 0.686 | 0.495 | 0.975 | 0.88 | 0.957 | 0.941 | 0.625 | 0.619 | 0.376 | 0.302 | 0.267 | 0.948 | 0.298 | 0.742 |
| NCI-H2342 | 0.938 | 0.86 | 0.992 | 0.927 | 1.05 | 0.926 | 0.79 | 0.675 | 0.975 | 0.949 | 0.966 | 0.843 | 0.622 | 0.649 | 0.443 | 0.622 | 0.737 | 0.94 | 0.574 |  |
| NCI-H2347 | 0.939 | 0.791 | 0.924 | 1.07 | 0.97 | 1.12 | 0.949 | 0.864 | 0.979 | 1.07 | 0.904 | 0.772 | 0.376 | 0.516 | 0.33 | 0.463 | 0.234 | 1.02 | 0.38 | 0.992 |
| NCI-H2405 | 0.945 |  | 0.98 | 1.02 | 0.965 | 0.973 | 0.824 | 0.703 | 0.981 | 0.981 | 0.887 | 0.795 | 0.646 | 0.518 | 0.382 |  | 0.368 | 0.955 | 0.374 | 0.749 |
| NCI-H3122 | 1.03 | 1.03 | 1.12 | 0.981 | 1.02 | 1.02 | 0.968 | 0.744 | 1.03 | 1.02 | 1.08 | 0.959 | 1.03 | 0.704 | 0.357 | 0.292 | 0.394 | 0.979 | 0.372 | 0.759 |
| PC-3 [JPC-3] | 0.972 | 0.971 | 1.18 | 1.1 | 1.03 | 1.13 | 0.943 | 1.01 | 1.01 | 0.993 | 1.03 | 0.918 | 0.745 | 0.698 | 0.482 | 0.498 | 0.513 |  |  | 0.999 |
| PC-14 | 0.94 | 0.864 | 1.01 | 1.01 | 1 | 1.03 | 0.89 | 0.973 | 1 | 1.04 | 0.965 | 0.979 | 0.815 | 0.765 | 0.456 | 0.218 | 0.652 |  |  | 0.908 |
| RERF-LC-KJ | 0.957 | 0.942 | 1.03 | 0.94 | 0.914 | 1.01 | 0.824 | 0.87 | 0.942 | 1.01 | 0.933 | 0.735 | 0.597 | 0.464 | 0.428 | 0.398 | 0.498 | 0.984 | 0.408 | 0.844 |
| SK-LU-1 | 0.95 | 0.669 | 0.978 | 1.07 | 0.977 | 1.03 | 0.855 | 0.812 | 1.08 | 0.974 | 0.916 | 0.608 | 0.328 | 0.425 | 0.428 | 0.384 | 0.521 | 0.958 | 0.555 | 0.922 |
| SK-MES-1 | 0.969 | 0.932 | 0.973 | 0.975 | 0.998 | 1.09 | 0.894 | 0.757 | 1.04 | 0.967 | 0.922 | 0.78 | 0.605 | 0.35 | 0.624 | 0.622 | 0.706 | 0.727 | 0.695 | 0.896 |
| SW 900 | 0.69 | 0.808 | 0.756 | 0.944 | 0.7 | 1 | 0.789 | 0.651 | 0.618 | 0.925 | 0.744 | 0.812 | 0.627 | 0.47 | 0.532 | 0.476 | 0.614 | 0.843 | 0.454 |  |
| SW 1573 | 0.916 | 0.957 | 0.941 | 0.98 | 0.916 | 0.94 | 0.704 | 0.649 | 0.951 | 0.892 | 0.938 | 0.878 | 0.671 | 0.655 | 0.386 | 0.4 | 0.395 | 0.927 | 0.308 | 0.733 |
